Experimental data from patent US10952436B2, “Microbiocidal quinoline (thio)carboxamide derivatives” (SYNGENTA PARTICIPATIONS AG, priority 2017, dated 2021).

Key:
[1] = system: Fusarium culmorum; experiment: microbe, parasite or virus in culture; assay type: cell-based; settings: read-out: control of Fusarium culmorum
[2] = system: Monographella nivalis (Microdochium nivale); experiment: Monographella nivalis (Microdochium nivale)/Liquid Culture (Foot Rot Cereals); assay type: cell-based; settings: 200 ppm, liquid culture, compared to untreated control, 4-5 days after application, read-out: control of Monographella nivalis
[3] = system: Fusarium culmorum; experiment: whole plant or invertebrate; assay type: in vivo; settings: in Triticum aestivum, read-out: control of Fusarium culmorum
[4] = system: Magnaporthe grisea (Pyricularia oryzae); experiment: microbe, parasite or virus in culture; assay type: cell-based; settings: read-out: control of Magnaporthe grisea
[5] = system: Botryotinia fuckeliana (Botrytis cinerea); experiment: Botryotinia fuckeliana (Botrytis cinerea)/Liquid Culture (Gray Mould); assay type: cell-based; settings: 200 ppm, liquid culture, compared to untreated control, 3-4 days after application, read-out: control of Botryotinia fuckeliana
[6] = system: Glomerella lagenarium (Colletotrichum lagenarium); experiment: Glomerella lagenarium (Colletotrichum lagenarium)/Liquid Culture (Anthracnose); assay type: cell-based; settings: Colletotrichum orbiculare; 200 ppm; liquid culture, compared to untreated control, 3-4 days after application; read-out: control of Glomerella lagenarium
[7] = system: Sclerotinia sclerotiorum; experiment: Sclerotinia sclerotiorum/Liquid Culture (Cottony Rot); settings: read-out: control of Sclerotinia sclerotiorum
Experimental: Mycelia fragments of a newly grown liquid culture of the fungus are directly mixed into nutrient broth (Vogels broth). After placing a (DMSO) solution of test compound into a microtiter plate (96-well format) the nutrient broth containing the fungal material is added. The test plates are incubated at 24° C. and the inhibition of growth is determined photometrically 3-4 days after application.

C[C@](Cc1ccccc1)(CC(F)(F)F)C(=O)Nc1cnc2c(F)cccc2c1 (single isomer, unassigned) [Compound F-23]
inhibition of growth at 200 ppm [1]: ≥ 80% | inhibition of growth at 200 ppm [2]: ≥ 80% | pest or weed control at 200 ppm [3]: ≥ 80% | inhibition of growth at 200 ppm [4]: ≥ 80% | inhibition of growth at 200 ppm [5]: ≥ 80% | inhibition of growth at 200 ppm [6]: ≥ 80% | inhibition of growth at 20 ppm [7]: ≥ 80%

Cc1nc2c(F)cccc2cc1NC(=O)C(C)(Cc1cccc(F)c1)CC(C)C (stereo not drawn) [Compound E-10, N-(8-fluoro-2-methyl-3-quinolyl)-2-[(3-fluorophenyl)methyl]-2,4-dimethyl-pentanamide]
inhibition of growth at 200 ppm [1]: ≥ 80% | inhibition of growth at 200 ppm [2]: ≥ 80% | pest or weed control at 200 ppm [3]: ≥ 80% | inhibition of growth at 200 ppm [4]: ≥ 80% | melting point: 93 to 95 °C | inhibition of growth at 200 ppm [5]: ≥ 80% | inhibition of growth at 200 ppm [6]: ≥ 80% | inhibition of growth at 20 ppm [7]: ≥ 80%

C=C(C)CC(C)(Cc1cccc(F)c1)C(=O)Nc1cnc2c(F)cccc2c1 (stereo not drawn) [Compound E-11, 2-[(3-fluorophenyl)methyl]-N-(8-fluoro-3-quinolyl)-2,4-dimethyl-pent-4-enamide]
inhibition of growth at 200 ppm [1]: ≥ 80% | inhibition of growth at 200 ppm [2]: ≥ 80% | inhibition of growth at 200 ppm [4]: ≥ 80% | melting point: 125 to 127 °C | inhibition of growth at 200 ppm [5]: ≥ 80% | inhibition of growth at 200 ppm [6]: ≥ 80% | inhibition of growth at 20 ppm [7]: ≥ 80%

C=C(C)CC(C)(Cc1cccc(F)c1)C(=O)Nc1cc2cccc(F)c2nc1C (stereo not drawn) [Compound E-12, N-(8-fluoro-2-methyl-3-quinolyl)-2-[(3-fluorophenyl)methyl]-2,4-dimethyl-pent-4-enamide]
inhibition of growth at 200 ppm [1]: ≥ 80% | inhibition of growth at 200 ppm [2]: ≥ 80% | inhibition of growth at 200 ppm [4]: ≥ 80% | melting point: 124 to 126 °C | inhibition of growth at 200 ppm [5]: ≥ 80% | inhibition of growth at 200 ppm [6]: ≥ 80% | inhibition of growth at 20 ppm [7]: ≥ 80%

Cc1c(NC(=O)C(C)(Cc2ccccc2)CC(C)C)cnc2c(Cl)cccc12 (stereo not drawn) [Compound E-14, 2-benzyl-N-(8-chloro-4-methyl-3-quinolyl)-2,4-dimethyl-pentanamide]
inhibition of growth at 200 ppm [1]: ≥ 80% | inhibition of growth at 200 ppm [4]: ≥ 80% | melting point: 124 to 126 °C | inhibition of growth at 200 ppm [5]: ≥ 80% | inhibition of growth at 200 ppm [6]: ≥ 80% | inhibition of growth at 20 ppm [7]: ≥ 80%

Cc1c(NC(=O)C(C)(Cc2ccccc2)CC(F)(F)F)cnc2c(Cl)cccc12 (stereo not drawn) [Compound E-15, 2-benzyl-N-(8-chloro-4-methyl-3-quinolyl)-4,4,4-trifluoro-2-methyl-butanamide]
inhibition of growth at 200 ppm [1]: ≥ 80% | inhibition of growth at 200 ppm [2]: ≥ 80% | inhibition of growth at 200 ppm [4]: ≥ 80% | melting point: 73 to 75 °C | inhibition of growth at 200 ppm [5]: ≥ 80% | inhibition of growth at 200 ppm [6]: ≥ 80% | inhibition of growth at 20 ppm [7]: ≥ 80%

Cc1nc2c(F)cccc2cc1NC(=O)C(C)(Cc1ccc(F)cc1)CC(F)(F)F (stereo not drawn) [Compound E-16, 4,4,4-trifluoro-N-(8-fluoro-2-methyl-3-quinolyl)-2-[(4-fluorophenyl)methyl]-2-methyl-butanamide]
inhibition of growth at 200 ppm [1]: ≥ 80% | inhibition of growth at 200 ppm [4]: ≥ 80% | inhibition of growth at 200 ppm [5]: ≥ 80% | inhibition of growth at 200 ppm [6]: ≥ 80% | inhibition of growth at 20 ppm [7]: ≥ 80%

CC(Cc1cccc(F)c1)(CC(F)(F)F)C(=O)Nc1cnc2c(F)cccc2c1 (stereo not drawn) [Compound E-22, 4,4,4-trifluoro-2-[(3-fluorophenyl)methyl]-N-(8-fluoro-3-quinolyl)-2-methyl-butanamide]
inhibition of growth at 200 ppm [1]: ≥ 80% | inhibition of growth at 200 ppm [2]: ≥ 80% | inhibition of growth at 200 ppm [4]: ≥ 80% | inhibition of growth at 200 ppm [5]: ≥ 80% | inhibition of growth at 200 ppm [6]: ≥ 80% | inhibition of growth at 20 ppm [7]: ≥ 80%

CC(Cc1ccccc1)(CC1(F)CC1)C(=O)Nc1cnc2c(F)cccc2c1 (stereo not drawn) [Compound E-25, 2-benzyl-3-(1-fluorocyclopropyl)-N-(8-fluoro-3-quinolyl)-2-methyl-propanamide]
inhibition of growth at 200 ppm [1]: ≥ 80% | pest or weed control at 200 ppm [3]: ≥ 80% | inhibition of growth at 200 ppm [4]: ≥ 80% | melting point: 162 to 164 °C | inhibition of growth at 200 ppm [5]: ≥ 80% | inhibition of growth at 200 ppm [6]: ≥ 80% | inhibition of growth at 20 ppm [7]: ≥ 80%

Cc1nc2c(F)cccc2cc1NC(=O)C(C)(Cc1ccccc1)CC(F)(F)F (stereo not drawn) [Compound E-47, 2-benzyl-4,4,4-trifluoro-N-(8-fluoro-2-methyl-3-quinolyl)-2-methyl-butanamide]
inhibition of growth at 200 ppm [1]: ≥ 80% | pest or weed control at 200 ppm [3]: ≥ 80% | inhibition of growth at 200 ppm [4]: ≥ 80% | melting point: 130 to 132 °C | inhibition of growth at 200 ppm [5]: ≥ 80% | inhibition of growth at 200 ppm [6]: ≥ 80% | inhibition of growth at 20 ppm [7]: ≥ 80%

CC(Cc1ccccc1)(CC(F)(F)F)C(=O)Nc1cnc2c(Cl)cccc2c1 (stereo not drawn) [Compound E-51, 2-benzyl-N-(8-chloro-3-quinolyl)-4,4,4-trifluoro-2-methyl-butanamide]
inhibition of growth at 200 ppm [1]: ≥ 80% | inhibition of growth at 200 ppm [2]: ≥ 80% | pest or weed control at 200 ppm [3]: ≥ 80% | inhibition of growth at 200 ppm [4]: ≥ 80% | melting point: 104 to 106 °C | inhibition of growth at 200 ppm [5]: ≥ 80% | inhibition of growth at 200 ppm [6]: ≥ 80% | inhibition of growth at 20 ppm [7]: ≥ 80%

C=C(Cl)CC(C)(Cc1ccccc1)C(=O)Nc1cnc2c(F)cccc2c1 (stereo not drawn) [Compound E-53, 2-benzyl-4-chloro-N-(8-fluoro-3-quinolyl)-2-methyl-pent-4-enamide]
inhibition of growth at 200 ppm [1]: ≥ 80% | inhibition of growth at 200 ppm [2]: ≥ 80% | pest or weed control at 200 ppm [3]: ≥ 80% | inhibition of growth at 200 ppm [4]: ≥ 80% | melting point: 148 to 150 °C | inhibition of growth at 200 ppm [5]: ≥ 80% | inhibition of growth at 200 ppm [6]: ≥ 80% | inhibition of growth at 20 ppm [7]: ≥ 80%

CC(Cc1ccccc1)(CC(F)(F)Cl)C(=O)Nc1cnc2c(F)cccc2c1 (stereo not drawn) [Compound E-56, 2-benzyl-4-chloro-4,4-difluoro-N-(8-fluoro-3-quinolyl)-2-methyl-butanamide]
inhibition of growth at 200 ppm [1]: ≥ 80% | inhibition of growth at 200 ppm [2]: ≥ 80% | pest or weed control at 200 ppm [3]: ≥ 80% | inhibition of growth at 200 ppm [4]: ≥ 80% | inhibition of growth at 200 ppm [5]: ≥ 80% | inhibition of growth at 200 ppm [6]: ≥ 80% | inhibition of growth at 20 ppm [7]: ≥ 80%

CC(Cc1ccccc1)(CC(F)(F)F)C(=O)Nc1cnc2ccccc2c1 (stereo not drawn) [Compound E-81, 2-benzyl-4,4,4-trifluoro-2-methyl-N-(3-quinolyl)butanamide]
inhibition of growth at 200 ppm [1]: ≥ 80% | pest or weed control at 200 ppm [3]: ≥ 80% | inhibition of growth at 200 ppm [4]: ≥ 80% | inhibition of growth at 200 ppm [5]: ≥ 80% | inhibition of growth at 200 ppm [6]: ≥ 80% | inhibition of growth at 20 ppm [7]: ≥ 80%

Cc1c(NC(=O)[C@](C)(Cc2ccccc2)CC(C)C)cnc2c(F)cccc12 [Compound F-3, (2S)-2-benzyl-N-(8-fluoro-4-methyl-3-quinolyl)-2,4-dimethyl-pentanamide]
inhibition of growth at 200 ppm [1]: ≥ 80% | inhibition of growth at 200 ppm [2]: ≥ 80% | inhibition of growth at 200 ppm [4]: ≥ 80% | inhibition of growth at 200 ppm [5]: ≥ 80% | inhibition of growth at 200 ppm [6]: ≥ 80% | inhibition of growth at 20 ppm [7]: ≥ 80%

C=C(C)C[C@@](C)(Cc1ccccc1)C(=O)Nc1cnc2c(F)cccc2c1C [Compound F-5, (2S)-2-benzyl-N-(8-fluoro-4-methyl-3-quinolyl)-2,4-dimethyl-pent-4-enamide]
inhibition of growth at 200 ppm [1]: ≥ 80% | inhibition of growth at 200 ppm [2]: ≥ 80% | inhibition of growth at 200 ppm [4]: ≥ 80% | inhibition of growth at 200 ppm [5]: ≥ 80% | inhibition of growth at 200 ppm [6]: ≥ 80% | inhibition of growth at 20 ppm [7]: ≥ 80%

Cc1nc2c(F)cccc2cc1NC(=O)[C@](C)(Cc1ccccc1)CC(C)C [Compound F-7, (2S)-2-benzyl-N-(8-fluoro-2-methyl-3-quinolyl)-2,4-dimethyl-pentanamide]
inhibition of growth at 200 ppm [1]: ≥ 80% | inhibition of growth at 200 ppm [2]: ≥ 80% | pest or weed control at 200 ppm [3]: ≥ 80% | inhibition of growth at 200 ppm [4]: ≥ 80% | inhibition of growth at 200 ppm [5]: ≥ 80% | inhibition of growth at 200 ppm [6]: ≥ 80% | inhibition of growth at 20 ppm [7]: ≥ 80%

Cc1nc2c(F)cccc2cc1NC(=O)[C@@](C)(Cc1ccccc1)CC(C)C [Compound F-8, (2R)-2-benzyl-N-(8-fluoro-2-methyl-3-quinolyl)-2,4-dimethyl-pentanamide]
inhibition of growth at 200 ppm [1]: ≥ 80% | inhibition of growth at 200 ppm [2]: ≥ 80% | pest or weed control at 200 ppm [3]: ≥ 80% | inhibition of growth at 200 ppm [4]: ≥ 80% | inhibition of growth at 200 ppm [5]: ≥ 80% | inhibition of growth at 200 ppm [6]: ≥ 80% | inhibition of growth at 20 ppm [7]: ≥ 80%

CC1(C[C@@](C)(Cc2ccccc2)C(=O)Nc2cnc3c(F)cccc3c2)CC1 [Compound F-10, (2S)-2-benzyl-N-(8-fluoro-3-quinolyl)-2-methyl-3-(1-methylcyclopropyl) propanamide]
inhibition of growth at 200 ppm [1]: ≥ 80% | inhibition of growth at 200 ppm [2]: ≥ 80% | inhibition of growth at 200 ppm [4]: ≥ 80% | melting point: 58 to 60 °C | inhibition of growth at 200 ppm [5]: ≥ 80% | inhibition of growth at 200 ppm [6]: ≥ 80% | inhibition of growth at 20 ppm [7]: ≥ 80%

C[C@](Cc1ccccc1)(CC(F)(F)F)C(=O)Nc1cnc2c(F)c(F)ccc2c1 [Compound F-15, (2S)-2-benzyl-N-(7,8-difluoro-3-quinolyl)-4,4,4-trifluoro-2-methyl-butanamide]
inhibition of growth at 200 ppm [1]: ≥ 80% | inhibition of growth at 200 ppm [2]: ≥ 80% | inhibition of growth at 200 ppm [4]: ≥ 80% | inhibition of growth at 200 ppm [5]: ≥ 80% | inhibition of growth at 200 ppm [6]: ≥ 80% | inhibition of growth at 20 ppm [7]: ≥ 80%
